“And” between values parts separate entries of the source, which are not always exact repeats. Identical values can stand only once.
System: Hs578T multi-cell spheroids, viability
Assay: Anticancer human tumor Hs578T cell line growth inhibition [IpAb];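 also: drug exposure lasted 7 days before readout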
Conditions: for viability, T/C: stronger effect = lower value
Excerpt: Combinatorial screen of targeted agents with ipatasertib and abemaciclib in multi-cell type tumor spheroids
A high-throughput screen of multi-cell type tumor spheroids was designed to identify active combinations of targeted small molecules and ipatasertib or abemaciclib. Complex spheroids include a stromal component modeled by human endothelial cells (HUVEC) and fibroblasts modeled by human mesenchymal stem cells (MSCs). The concentration ranges selected for each drug and investigational agent were based upon clinically achievable concentrations if the clinical Cmax of the agent was known.
Compounds. The drugs and investigational agents: ipatasertib (NSC767898), abemaciclib(NSC768073), selumetinib (NSC741078), trametinib (758246), adavosertib (NSC754352), everolimus (NSC733504), sapanisertib (NSC764658), vemurafenib (NSC761431), venetoclax (NSC766270), copanlisib (NSC809693), apelisib (NSC765974), palbociblib (NSC758247), vemurafenib (NSC761431), dabrafenib (NSC764134), ravoxertinib (NSC781343), BMS-387032 (NSC767048), sotorasib (NSC818433), talazoparib (NSC767125) and afursertib (NSC778305), were obtained from the National Cancer Institute (NCI) Developmental Therapeutics Program Chemical Repository. The FDA-approved anticancer drug set is available from the NCI Developmental Therapeutics Program. […] The stock solutions were prepared in dimethyl sulfoxide (DMSO, Sigma-Aldrich, St. Louis, MO, cat. D2650) at 800-fold the tested concentration and stored at -70 degrees C prior to their use. All drugs and investigational agents were tested over a range starting from a high concentration at or near the clinical Cmax and decreasing in half-log increments. If the clinical Cmax for an agent had not been determined, the highest concentration tested was 10 microM.
NCI60 Cell Culture. NCI60 cell lines were obtained from the NCI Developmental Therapeutics Program Tumor Repository. For each lot of cells, the Repository performed Applied Biosystems AmpFLSTR Identifiler testing with PCR amplification to confirm consistency with the published Identifier STR profile for each cell line. Cells were kept in continuous culture for no more than 20 passages. The optimal seeding densities for each of the cell lines at each time point assessed were determined prior to performing the concentration response studies. Briefly, the NCI60 human tumor lines were grown as monolayers in RPMI 1640 medium supplemented with 10% FBS and 2 mmol/L L-glutamine.
An additional 9 lines were from the NCI60 cell line panel including MDA-MB-231 breast carcinoma, MDA-MB-468 breast carcinoma, MCF7 breast carcinoma, Hs578T breast carcinoma, MALME-3M melanoma, SK-MEL-2 melanoma, SK-OV-3 ovarian carcinoma, DU-145 prostate carcinoma, PC-3 prostate carcinoma, all cell lines along with major genetic alterations are listed on Table 2. Pooled donor human umbilical vein endothelial cells (HUVEC, Lonza, cat. CC-2519) and human mesenchymal stem cells (hMSC, Lonza, cat. PT-2501) were purchased from Lonza (Walkersville, MD).
PDMR cell lines were grown in complete medium (DC medium): Dulbecco's modified Eagle's medium (DMEM)/F12 supplemented with 5% fetal bovine serum (FBS), 2 mM L-glutamine, 100 U/mL penicillin and 100 µg/ml streptomycin, 0.4 µg/ml hydrocortisone, 10 ng/ml epidermal growth factor (EGF) recombinant human protein, 24 µg/mL adenine, and 0.1 mg/mL primocin. During culture from frozen stock vials, PDMR cells were cultured in the same medium containing 10 µM Y-27632 (see Table 3). The PDCs were cultured in complete DMEM/F12 media without 10 microM Y-27632 dihydrochloride for at least two passages prior to the screen. The pooled donor HUVEC and hMSC were cultured in endothelial cell growth medium 2 (PromoCell, Heidelberg, Germany, cat. C-22011) and mesenchymal stem cell growth medium 2 (PromoCell, cat. C-28009), respectively. For all experiments, HUVEC and hMSC were used at passages </=5.
[…]

`Cc1nc(NC(=O)N2CCCC2C(N)=O)sc1-c1ccnc(C(C)(C)C(F)(F)F)c1` (stereo not given) was tested, and the viability, T/C (compound 0.0316 µM) was 96.6% and 110%, the viability, T/C (compound 0.1 µM) was 93.1% and 95.3% and the viability, T/C (compound 0.316 µM) was 79.6% and 79.2%. The viability, T/C (compound 1 µM) was 60% and 58.8%, the viability, T/C (compound 3.16 µM) was 42.5% and 45.5% and the viability, T/C (compound 10 µM) was 13.9% and 16.4%. The IC50 (curve of compound) was 1930 nM and 1900 nM.

In the case of `Cn1cnc2c(F)c(Nc3ccc(Br)cc3Cl)c(C(=O)NOCCO)cc21`, the viability, T/C (compound 0.00949 µM) is reported as 102% and 100%, the viability, T/C (compound 0.03 µM) is reported as 104% and 97.5% and the viability, T/C (compound 0.0949 µM) is reported as 104% and 96%. For the same compound, the viability, T/C (compound 0.3 µM) was 89.2% and 88.1%, the viability, T/C (compound 0.949 µM) was 79.1% and 75% and the viability, T/C (compound 3 µM) was 56.1% and 48.7%. The IC50 (curve of compound) was > 3000 nM and 2850 nM.

With `Cn1ncc(Cl)c1-c1cc(C(=O)NC(CN)Cc2cccc(F)c2)sc1Cl` (stereo not given) the viability, T/C (compound 0.0316 µM) was 90.4% and 98.8%, the viability, T/C (compound 0.1 µM) was 91% and 85.1% and the viability, T/C (compound 0.316 µM) was 72.4% and 75.8%. The viability, T/C (compound 1 µM) was 60.7% and 63.9%, the viability, T/C (compound 3.16 µM) was 49.9% and 56.1% and the viability, T/C (compound 10 µM) was 0.22% and 0.31%. For the same compound, the IC50 (curve of compound) was 2180 nM and 2650 nM.

With `Cn1nccc1Nc1nccc(-c2ccn(C(CO)c3ccc(Cl)c(F)c3)c(=O)c2)n1` (stereo not given) the viability, T/C (compound 0.0316 µM) was 104% and 107%, the viability, T/C (compound 0.1 µM) was 114% and 115% and the viability, T/C (compound 0.316 µM) was 118% and 128%. For the same compound, the viability, T/C (compound 1 µM) was 90.7% and 94%, the viability, T/C (compound 3.16 µM) was 70.3% and 65.2% and the viability, T/C (compound 10 µM) was 24.4% and 35.9%. The IC50 (curve of compound) was 5130 nM and 5580 nM.

In the case of `Cn1ncnc1[C@H]1c2n[nH]c(=O)c3cc(F)cc(c23)N[C@@H]1c1ccc(F)cc1`, the viability, T/C (compound 0.000316 µM) is reported as 94% and 104%, the viability, T/C (compound 0.001 µM) is reported as 101% and 102% and the viability, T/C (compound 0.00316 µM) is reported as 88% and 103%. For the same compound, the viability, T/C (compound 0.01 µM) was 91.7% and 96.2%, the viability, T/C (compound 0.0316 µM) was 90.2% and 96.4% and the viability, T/C (compound 0.1 µM) was 82.2% and 95.2%. It also gave an IC50 (curve of compound) of over 100 nM.

With `Cn1cnc2c(F)c(Nc3ccc(Br)cc3Cl)c(C(=O)NOCCO)cc21` + CC(C)NCC(C(=O)N1CCN(c2ncnc3c2C(C)CC3O)CC1)c1ccc(Cl)cc1 the IC50 (curve of first compound, second compound 0.1 µM) was 2310 nM, the IC50 (curve of first compound, second compound 0.316 µM) was 1200 nM and the IC50 (curve of first compound, second compound 1 µM) was 400 nM. The IC50 (curve of first compound, second compound 3.16 µM) was 123 nM, the IC50 (curve of first compound, second compound 10 µM) was 26.5 nM and the viability, T/C (second compound 0.1 µM, first compound 0.00949 µM) was 96.2%. It also gave a viability, T/C (second compound 0.1 µM, first compound 0.03 µM) of 91.8%, a viability, T/C (second compound 0.1 µM, first compound 0.0949 µM) of 85.3% and a viability, T/C (second compound 0.1 µM, first compound 0.3 µM) of 84.2%. For the same compound, the viability, T/C (second compound 0.1 µM, first compound 0.949 µM) was 74.8%, the viability, T/C (second compound 0.1 µM, first compound 3 µM) was 42.8% and the viability, T/C (second compound 0.316 µM, first compound 0.00949 µM) was 87.7%. For the same compound, the viability, T/C (second compound 0.316 µM, first compound 0.03 µM) was 86.2%, the viability, T/C (second compound 0.316 µM, first compound 0.0949 µM) was 83.4% and the viability, T/C (second compound 0.316 µM, first compound 0.3 µM) was 64.9%. For the same compound, the viability, T/C (second compound 0.316 µM, first compound 0.949 µM) was 58%, the viability, T/C (second compound 0.316 µM, first compound 3 µM) was 30.4% and the viability, T/C (second compound 1 µM, first compound 0.00949 µM) was 77%. It also gave a viability, T/C (second compound 1 µM, first compound 0.03 µM) of 72%, a viability, T/C (second compound 1 µM, first compound 0.0949 µM) of 63.1% and a viability, T/C (second compound 1 µM, first compound 0.3 µM) of 54.4%. For the same compound, the viability, T/C (second compound 1 µM, first compound 0.949 µM) was 39.2%, the viability, T/C (second compound 1 µM, first compound 3 µM) was 19.3% and the viability, T/C (second compound 3.16 µM, first compound 0.00949 µM) was 53.8%. The viability, T/C (second compound 3.16 µM, first compound 0.03 µM) was 52.2%, the viability, T/C (second compound 3.16 µM, first compound 0.0949 µM) was 47.9% and the viability, T/C (second compound 3.16 µM, first compound 0.3 µM) was 49.4%. It also gave a viability, T/C (second compound 3.16 µM, first compound 0.949 µM) of 35.2%, a viability, T/C (second compound 3.16 µM, first compound 3 µM) of 12.4% and a viability, T/C (second compound 10 µM, first compound 0.00949 µM) of 52.6%. The viability, T/C (second compound 10 µM, first compound 0.03 µM) was 50.1%, the viability, T/C (second compound 10 µM, first compound 0.0949 µM) was 42.2% and the viability, T/C (second compound 10 µM, first compound 0.3 µM) was 43.1%. The viability, T/C (second compound 10 µM, first compound 0.949 µM) was 23.2% and the viability, T/C (second compound 10 µM, first compound 3 µM) was 5.18%.

Source: PubChem BioAssay AID2060331 (Molecular Pharmacology Branch, DTP, NCI, 2025)
